Reference: patent US12187709B2 (Genentech, Inc., priority 2021, dated 2025)

Key:
Cbl-b = Cbl-b (Homo sapiens (Human), UniProt Q13191); assay: Cbl-b LCK Ub TR-FRET assay (Cbl-b Lck HTRF); format: biochemical; conditions: for IC50: Cbl-b LCK Ub TR-FRET; for fold-selectivity (Cbl-b over C-cbl): ratio C-cbl Lck HTRF IC50 / Cbl-b Lck HTRF IC50
Summary of the method: (§1)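 Signal is read once the detection mix has stood 20 min at ambient temperature. Curves are anchored by DMSO as maximum and by omission of LCK as minimum.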

c-Cbl = c-Cbl (Homo sapiens (Human), UniProt P22681); assay: C-Cbl LCK Ub TR-FRET assay (C-cbl Lck HTRF); format: biochemical
Summary of the method: as §1

[1] = biological target: Human Cbl-b (residues 40-426) (Homo sapiens (Human), UniProt Q13191); assay: Cbl-b SPR assay; format: binding; conditions: for Fold of selectivity: C-cbl SPR Kd vs Cbl-b SPR Kd; for Kd: SPR, 20° C.
Summary of the method: (§2)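 Captured protein (1300-1500 RU for both isoforms) was probed in multi-cycle kinetics with 6 concentrations in 2-fold dilution, 60 s contact, 40 μl/min, dissociation 120-1200 s, double-referenced. Kinetic and affinity parameters came from a 1:1 binding fit. For slow off-rates, kd was set independently by a chaser-based method.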

c-Cbl (residues 47-435) = c-Cbl (residues 47-435) (Homo sapiens (Human), UniProt P22681); assay: c-Cbl SPR assay; format: binding; conditions: 20° C.
Summary of the method: as §2

Sequence of c-Cbl (residues 47-435) (P22681 47-435): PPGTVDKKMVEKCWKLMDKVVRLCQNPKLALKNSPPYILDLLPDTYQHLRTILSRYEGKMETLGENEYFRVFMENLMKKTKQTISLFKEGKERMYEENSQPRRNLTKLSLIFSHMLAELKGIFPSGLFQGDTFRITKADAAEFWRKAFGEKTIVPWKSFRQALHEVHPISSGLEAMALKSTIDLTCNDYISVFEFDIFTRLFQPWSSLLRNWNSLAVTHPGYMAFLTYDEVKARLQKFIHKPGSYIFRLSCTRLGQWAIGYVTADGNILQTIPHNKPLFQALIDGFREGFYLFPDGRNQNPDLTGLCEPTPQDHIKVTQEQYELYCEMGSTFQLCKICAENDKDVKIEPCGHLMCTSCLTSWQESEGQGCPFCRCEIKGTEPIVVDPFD
Sequence of c-Cbl (P22681 47-435): as above
Sequence of Human Cbl-b (residues 40-426) (Q13191 40-426): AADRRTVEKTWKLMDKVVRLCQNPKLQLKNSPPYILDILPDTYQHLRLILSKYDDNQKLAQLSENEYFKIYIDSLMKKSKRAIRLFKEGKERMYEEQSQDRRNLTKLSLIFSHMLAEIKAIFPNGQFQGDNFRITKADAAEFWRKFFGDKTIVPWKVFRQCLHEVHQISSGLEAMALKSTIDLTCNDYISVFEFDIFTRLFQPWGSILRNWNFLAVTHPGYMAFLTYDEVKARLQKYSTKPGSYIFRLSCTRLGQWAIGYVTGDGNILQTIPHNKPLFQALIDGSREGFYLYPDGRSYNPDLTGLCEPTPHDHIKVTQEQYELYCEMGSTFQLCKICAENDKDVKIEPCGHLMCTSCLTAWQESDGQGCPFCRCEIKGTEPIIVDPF
Sequence of Cbl-b (Q13191 40-426): as above

Cn1cnnc1C1(c2cccc(N3Cc4c(cc(CNC5(C)CCC5)cc4C(F)(F)F)C3=O)c2)CN(CC(F)(F)F)C1 [Compound 110, 2-(3-(3-(4-methyl-4H-1,2,4-triazol-3-yl)-1-(2,2,2-trifluoroethyl)azetidin-3-yl)phenyl)-6-(((1-methylcyclobutyl)amino)methyl)-4-(trifluoromethyl)isoindolin-1-one]
IC50 (Cbl-b): 1.4 µM | fold-selectivity (Cbl-b over C-cbl) (Cbl-b): 6.5x | IC50 (c-Cbl): 9.4 µM | Fold of selectivity [1]: 7.2× | Kd [1]: 1.1 µM | Kd (c-Cbl (residues 47-435)): 7.6 µM

Cn1cnnc1C1(c2cccc(N3Cc4c(cc(CNC5(C)CCC5)cc4C(F)(F)F)C3=O)c2)CN(C2COC2)C1 [Compound 111, 2-(3-(3-(4-methyl-4H-1,2,4-triazol-3-yl)-1-(oxetan-3-yl)azetidin-3-yl)phenyl)-6-(((1-methylcyclobutyl)amino)methyl)-4-(trifluoromethyl)isoindolin-1-one]
IC50 (Cbl-b): 4.9 µM | fold-selectivity (Cbl-b over C-cbl) (Cbl-b): 4.1x | IC50 (c-Cbl): 20 µM | Fold of selectivity [1]: 8.6× | Kd [1]: 3.6 µM | Kd (c-Cbl (residues 47-435)): 31 µM

Cn1cnnc1C1(c2cccc(N3Cc4c(cc(CNC5(C)CCC5)cc4C(F)(F)F)C3=O)c2)CN(S(C)(=O)=O)C1 [Compound 113, 2-(3-(3-(4-methyl-4H-1,2,4-triazol-3-yl)-1-(methylsulfonyl)azetidin-3-yl)phenyl)-6-(((1-methylcyclobutyl)amino)methyl)-4-(trifluoromethyl)isoindolin-1-one]
IC50 (Cbl-b): 3.5 µM | fold-selectivity (Cbl-b over C-cbl) (Cbl-b): 5.3x | IC50 (c-Cbl): 18 µM | Fold of selectivity [1]: 13× | Kd [1]: 2.7 µM | Kd (c-Cbl (residues 47-435)): 34 µM

CO[C@H]1C[C@@](c2cccc(N3Cc4c(cc(CNC5(C)CCC5)cc4C(F)F)C3=O)c2)(c2nncn2C)C1 [Compound 116, 4-(difluoromethyl)-2-(3-((1s,3s)-3-methoxy-1-(4-methyl-4H-1,2,4-triazol-3-yl)cyclobutyl)phenyl)-6-(((1-methylcyclobutyl)amino)methyl)isoindolin-1-one]
IC50 (Cbl-b): 0.025 µM | fold-selectivity (Cbl-b over C-cbl) (Cbl-b): 6.0x | IC50 (c-Cbl): 0.15 µM | Fold of selectivity [1]: 15× | Kd [1]: 0.0081 µM | Kd (c-Cbl (residues 47-435)): 0.11 µM

CO[C@H]1C[C@](c2cccc(N3Cc4c(cc(CNC5(C)CCC5)cc4C(F)F)C3=O)c2)(c2nncn2C)C1 [Compound 117, 4-(difluoromethyl)-2-(3-((1r,3r)-3-methoxy-1-(4-methyl-4H-1,2,4-triazol-3-yl)cyclobutyl)phenyl)-6-(((1-methylcyclobutyl)amino)methyl)isoindolin-1-one]
IC50 (Cbl-b): 0.012 µM | fold-selectivity (Cbl-b over C-cbl) (Cbl-b): 5.0x | IC50 (c-Cbl): 0.06 µM | Fold of selectivity [1]: 16× | Kd [1]: 0.0032 µM | Kd (c-Cbl (residues 47-435)): 0.053 µM

Cn1cnnc1[C@]1(c2cccc(N3Cc4c(cc(CNC5(C)CCC5)cc4C(F)(F)F)C3=O)c2)C[C@@](O)(C(F)(F)F)C1 [Compound 120, 2-(3-((1s,3s)-3-hydroxy-1-(4-methyl-4H-1,2,4-triazol-3-yl)-3-(trifluoromethyl)cyclobutyl)phenyl)-6-(((1-methylcyclobutyl)amino)methyl)-4-(trifluoromethyl)isoindolin-1-one]
IC50 (Cbl-b): 0.36 µM | fold-selectivity (Cbl-b over C-cbl) (Cbl-b): 4.8 x | IC50 (c-Cbl): 1.8 µM | Fold of selectivity [1]: 6.8× | Kd [1]: 0.18 µM | Kd (c-Cbl (residues 47-435)): 1.4 µM

C[C@H]1C[C@@](c2cccc(N3Cc4c(cc(CNC5(C)CCC5)cc4C(F)(F)F)C3=O)c2)(c2nncn2C)O1 [Compound 123, 2-(3-((2R,4S)-4-methyl-2-(4-methyl-4H-1,2,4-triazol-3-yl)oxetan-2-yl)phenyl)-6-(((1-methylcyclobutyl)amino)methyl)-4-(trifluoromethyl)isoindolin-1-one]
IC50 (Cbl-b): 0.068 µM | fold-selectivity (Cbl-b over C-cbl) (Cbl-b): 3.4x | IC50 (c-Cbl): 0.23 µM | Fold of selectivity [1]: 6.1× | Kd [1]: 0.021 µM | Kd (c-Cbl (residues 47-435)): 0.13 µM

C[C@@H]1C[C@@](c2cccc(N3Cc4c(cc(CNC5(C)CCC5)cc4C(F)(F)F)C3=O)c2)(c2nncn2C)O1 [Compound 124, 2-(3-((2R,4R)-4-methyl-2-(4-methyl-4H-1,2,4-triazol-3-yl)oxetan-2-yl)phenyl)-6-(((1-methylcyclobutyl)amino)methyl)-4-(trifluoromethyl)isoindolin-1-one]
IC50 (Cbl-b): 0.056 µM | fold-selectivity (Cbl-b over C-cbl) (Cbl-b): 1.9x | IC50 (c-Cbl): 0.1 µM | Fold of selectivity [1]: 3.9× | Kd [1]: 0.017 µM | Kd (c-Cbl (residues 47-435)): 0.067 µM

C[C@H]1C[C@](c2cccc(N3Cc4c(cc(CNC5(C)CCC5)cc4C(F)(F)F)C3=O)c2)(c2nncn2C)O1 [Compound 125, 2-(3-((2S,4S)-4-methyl-2-(4-methyl-4H-1,2,4-triazol-3-yl)oxetan-2-yl)phenyl)-6-(((1-methylcyclobutyl)amino)methyl)-4-(trifluoromethyl)isoindolin-1-one]
IC50 (Cbl-b): 0.41 µM | fold-selectivity (Cbl-b over C-cbl) (Cbl-b): 5.7x | IC50 (c-Cbl): 2.3 µM | Fold of selectivity [1]: 11× | Kd [1]: 0.13 µM | Kd (c-Cbl (residues 47-435)): 1.5 µM

C[C@@H]1C[C@](c2cccc(N3Cc4c(cc(CNC5(C)CCC5)cc4C(F)(F)F)C3=O)c2)(c2nncn2C)O1 [Compound 126, 2-(3-((2S,4R)-4-methyl-2-(4-methyl-4H-1,2,4-triazol-3-yl)oxetan-2-yl)phenyl)-6-(((1-methylcyclobutyl)amino)methyl)-4-(trifluoromethyl)isoindolin-1-one]
IC50 (Cbl-b): 0.075 µM | fold-selectivity (Cbl-b over C-cbl) (Cbl-b): 3.4 x | IC50 (c-Cbl): 0.25 µM | Fold of selectivity [1]: 6.0× | Kd [1]: 0.012 µM | Kd (c-Cbl (residues 47-435)): 0.13 µM

Cl.Cn1cnnc1[C@]1(c2cccc(N3Cc4c(cc(CNC5(C)CCC5)cc4C(F)(F)F)C3=O)c2)C[C@@H](Cl)C1 [Compound 137, 2-(3-((1r,3r)-3-chloro-1-(4-methyl-4H-1,2,4-triazol-3-yl)cyclobutyl)phenyl)-6-(((1-methylcyclobutyl)amino)methyl)-4-(trifluoromethyl)isoindolin-1-one hydrochloride]
IC50 (Cbl-b): 0.0061 µM | fold-selectivity (Cbl-b over C-cbl) (Cbl-b): 1.4x | IC50 (c-Cbl): 0.0085 µM | Fold of selectivity [1]: 8.4× | Kd [1]: 0.00027 µM | Kd (c-Cbl (residues 47-435)): 0.0021 µM

Cn1cnnc1[C@]1(c2cccc(N3Cc4c(cc(CNC5(C)CCC5)cc4C(F)(F)F)C3=O)c2)C[C@H](Cl)C1 [Compound 138, 2-(3-((1s,3s)-3-chloro-1-(4-methyl-4H-1,2,4-triazol-3-yl)cyclobutyl)phenyl)-6-(((1-methylcyclobutyl)amino)methyl)-4-(trifluoromethyl)isoindolin-1-one]
IC50 (Cbl-b): 0.0041 µM | fold-selectivity (Cbl-b over C-cbl) (Cbl-b): 1.0x | IC50 (c-Cbl): 0.0042 µM | Fold of selectivity [1]: 5.6× | Kd [1]: 0.00075 µM | Kd (c-Cbl (residues 47-435)): 0.0042 µM

Cn1cnnc1[C@H](c1cccc(N2Cc3c(cc(CNC4(C)CCC4)cc3C(F)(F)F)C2=O)c1)[C@H]1CCOC1 [Compound 169, 2-(3-((S)-(4-methyl-4H-1,2,4-triazol-3-yl)((R)-tetrahydrofuran-3-yl)methyl)phenyl)-6-(((1-methylcyclobutyl)amino)methyl)-4-(trifluoromethyl)isoindolin-1-one]
IC50 (Cbl-b): 0.072 µM | fold-selectivity (Cbl-b over C-cbl) (Cbl-b): 4.8x | IC50 (c-Cbl): 0.34 µM | Fold of selectivity [1]: 2.7× | Kd [1]: 0.066 µM | Kd (c-Cbl (residues 47-435)): 0.18 µM

Cn1cnnc1[C@]1(c2cc(NC3CCCC3)cc(N3Cc4c(cc(CNC5(C)CCC5)cc4C(F)(F)F)C3=O)c2)C[C@H](C)C1 [Compound 177, 2-(3-(cyclopentylamino)-5-((1s,3s)-3-methyl-1-(4-methyl-4H-1,2,4-triazol-3-yl)cyclobutyl)phenyl)-6-(((1-methylcyclobutyl)amino)methyl)-4-(trifluoromethyl)isoindolin-1-one]
IC50 (Cbl-b): 0.059 µM | fold-selectivity (Cbl-b over C-cbl) (Cbl-b): 2.8x | IC50 (c-Cbl): 0.18 µM | Fold of selectivity [1]: 10× | Kd [1]: 0.0099 µM | Kd (c-Cbl (residues 47-435)): 0.099 µM

CCO[C@H]1C[C@@](c2cccc(N3Cc4c(cc(CNC5(C)CCC5)cc4C(F)(F)F)C3=O)c2)(c2nncn2C)C1 [Compound 178, 2-(3-((1s,3s)-3-ethoxy-1-(4-methyl-4H-1,2,4-triazol-3-yl)cyclobutyl)phenyl)-6-(((1-methylcyclobutyl)amino)methyl)-4-(trifluoromethyl)isoindolin-1-one]
IC50 (Cbl-b): 0.033 µM | fold-selectivity (Cbl-b over C-cbl) (Cbl-b): 2.5x | IC50 (c-Cbl): 0.085 µM | Fold of selectivity [1]: 4.6× | Kd [1]: 0.0058 µM | Kd (c-Cbl (residues 47-435)): 0.03 µM

CCO[C@H]1C[C@](c2cccc(N3Cc4c(cc(CNC5(C)CCC5)cc4C(F)(F)F)C3=O)c2)(c2nncn2C)C1 [Compound 179, 2-(3-((1r,3r)-3-ethoxy-1-(4-methyl-4H-1,2,4-triazol-3-yl)cyclobutyl)phenyl)-6-(((1-methylcyclobutyl)amino)methyl)-4-(trifluoromethyl)isoindolin-1-one]
IC50 (Cbl-b): 0.03 µM | fold-selectivity (Cbl-b over C-cbl) (Cbl-b): 3.4x | IC50 (c-Cbl): 0.11 µM | Fold of selectivity [1]: 13× | Kd [1]: 0.0046 µM | Kd (c-Cbl (residues 47-435)): 0.058 µM

CO[C@H]1C[C@](c2cccc(N3Cc4c(cc(CN5CCN(C)C[C@@H]5C(C)C)cc4C(F)(F)F)C3=O)c2)(c2nncn2C)C1 [Compound 180, 6-(((S)-2-isopropyl-4-methylpiperazin-1-yl)methyl)-2-(3-((1r,3S)-3-methoxy-1-(4-methyl-4H-1,2,4-triazol-3-yl)cyclobutyl)phenyl)-4-(trifluoromethyl)isoindolin-1-one]
IC50 (Cbl-b): 0.018 µM | fold-selectivity (Cbl-b over C-cbl) (Cbl-b): 3.7x | IC50 (c-Cbl): 0.074 µM | Fold of selectivity [1]: 10.2× | Kd [1]: 0.0035 µM | Kd (c-Cbl (residues 47-435)): 0.036 µM
